# Source: ChEMBL document CHEMBL1128380, “Antimalarial activity of novel ring-contracted artemisinin derivatives” (1995)
# Assays:
# Type in all cases: functional
# Mus musculus [1] = assay: Antimalarial activity was determined by Blood schizonticidal activity in mice (Mus musculus) infected with Plasmodium berghei K173 at 5 (mg/kg x5) subcutaneous dosage; Cured/treated = 0/6 on day 7
# Mus musculus [2] = assay: Antimalarial activity was determined by Blood schizonticidal activity in mice (Mus musculus) infected with Plasmodium berghei K173 at 20 (mg/kg x5) peroral dosage; Cured/treated = 0/6
# Mus musculus [3] = assay: Antimalarial activity was determined by Blood schizonticidal activity in mice (Mus musculus) infected with Plasmodium berghei K173 at 5 (mg/kg x5) subcutaneous dosage; Cured/treated = 2/6 on day 7
# Mus musculus [4] = assay: Antimalarial activity was determined by Blood schizonticidal activity in mice (Mus musculus) infected with Plasmodium berghei K173 at 5 (mg/kg x5) subcutaneous dosage; Cured/treated = 1/6 on day 7
# Mus musculus [5] = assay: Antimalarial activity was determined by blood schizonticidal activity in mice (Mus musculus) infected with Plasmodium berghei K173 at 10 (mg/kgx5) subcutaneous dosage; Cured/treated = 0/6 on day 7
# Mus musculus [6] = assay: Antimalarial activity was determined by Blood schizonticidal activity in mice (Mus musculus) infected with Plasmodium berghei K173 at 5 (mg/kg x5) subcutaneous dosage; Cured/treated = 6/6 on day 7
# Mus musculus [7] = assay: Antimalarial activity was determined by Blood schizonticidal activity in mice (Mus musculus) infected with Plasmodium berghei K173 at 25 (mg/kgx5) peroral dosage; Cured/treated = 16/16
# Mus musculus [8] = assay: Antimalarial activity was determined by Blood schizonticidal activity in mice (Mus musculus) infected with Plasmodium berghei NS at 5 (mg/kg x5) subcutaneous dosage; Cured/treated = 22/22
# Mus musculus [9] = assay: Antimalarial activity was determined by blood schizonticidal activity in mice (Mus musculus) infected with Plasmodium berghei K173 at 1.25 (mg/kgx5) subcutaneous dosage; Cured/treated = 26/34 on day 7
# Mus musculus [10] = assay: Antimalarial activity was determined by blood schizonticidal activity in mice (Mus musculus) infected with Plasmodium berghei NS at 2.5 (mg/kgx5) subcutaneous dosage; Cured/treated = 11/12
# Mus musculus [11] = assay: Antimalarial activity was determined by Blood schizonticidal activity in mice (Mus musculus) infected with Plasmodium berghei K173 at 1 (mg/kg x5) subcutaneous dosage; Cured/treated = 10/22 on day 7
# Mus musculus [12] = assay: Antimalarial activity was determined by Blood schizonticidal activity in mice (Mus musculus) infected with Plasmodium berghei K173 at 15 (mg/kg x5) peroral dosage; Cured/treated = 19/22 on day 7
# Mus musculus [13] = assay: Antimalarial activity was determined by Blood schizonticidal activity in mice (Mus musculus) infected with Plasmodium berghei NS at 25 (mg/kgx5) peroral dosage; Cured/treated = 6/6
# Mus musculus [14] = assay: Antimalarial activity was determined by Blood schizonticidal activity in mice (Mus musculus) infected with Plasmodium berghei K173 at 2.5 (mg/kgx5) subcutaneous dosage; Cured/treated = 28/28 on day 7
# Mus musculus [15] = assay: Antimalarial activity was determined by blood schizonticidal activity in mice (Mus musculus) infected with Plasmodium berghei K173 at 10 (mg/kgx5) peroral dosage; Cured/treated = 34/39 on day 7
# Mus musculus [16] = assay: Antimalarial activity was determined by Blood schizonticidal activity in mice (Mus musculus) infected with Plasmodium berghei K173 at 25 (mg/kgx5) peroral dosage; Cured/treated = 0/6 on day 7
# Mus musculus [17] = assay: Antimalarial activity was determined by Blood schizonticidal activity in mice (Mus musculus) infected with Plasmodium berghei K173 at 2.5 (mg/kgx5) subcutaneous dosage; Cured/treated = 0/6 on day 7
# Mus musculus [18] = assay: Antimalarial activity was determined by blood schizonticidal activity in mice (Mus musculus) infected with Plasmodium berghei K173 at 5 (mg/kg x5) subcutaneous dosage; Cured/treated = 6/6
# Mus musculus [19] = assay: Antimalarial activity was determined by Blood schizonticidal activity in mice (Mus musculus) infected with Plasmodium berghei K173 at 10 (mg/kgx5) subcutaneous dosage; Cured/treated = 6/6
# Mus musculus [20] = assay: Antimalarial activity was determined by Blood schizonticidal activity in mice (Mus musculus) infected with Plasmodium berghei K173 at 5 (mg/kg x5) subcutaneous dosage; Cured/treated = 5/5
# Mus musculus [21] = assay: Antimalarial activity was determined by blood schizonticidal activity in mice (Mus musculus) infected with Plasmodium berghei K173 at 2.5 (mg/kgx5) subcutaneous dosage; Cured/treated = 0/4 on day 7
# Mus musculus [22] = assay: Antimalarial activity was determined by Blood schizonticidal activity in mice (Mus musculus) infected with Plasmodium berghei K173 at 10 (mg/kgx5) subcutaneous dosage; Cured/treated = 0/5 on day 7
# Mus musculus [23] = assay: Antimalarial activity was determined by Blood schizonticidal activity in mice (Mus musculus) infected with Plasmodium berghei K173 at 5 (mg/kg x5) subcutaneous dosage; Cured/treated = 0/5 on day 7
# Mus musculus [24] = assay: Antimalarial activity was determined by blood schizonticidal activity in mice (Mus musculus) infected with Plasmodium berghei K173 at 25 (mg/kgx5) peroral dosage; Cured/treated = 0/6
# Mus musculus [25] = assay: Antimalarial activity was determined by Blood schizonticidal activity in mice (Mus musculus) infected with Plasmodium berghei K173 at 5 (mg/kg x5) subcutaneous dosage; Cured/treated = 5/6 on day 7
# Mus musculus [26] = assay: Antimalarial activity was determined by Blood schizonticidal activity in mice (Mus musculus) infected with Plasmodium berghei K173 at 10 (mg/kgx5) subcutaneous dosage; Cured/treated = 0/4 on day 7
smiles,measurement,setting,value
CCN(CC)CCOC[C@@]1(C)O[C@@H]2O[C@]3(C)CCC4[C@H](C)CC[C@@H]1[C@]42OO3 (some centres not stated),Cured/treated,Mus musculus [1],0
same,Cured/treated,Mus musculus [2],0
C[C@@H]1CC[C@@H]2[C@]34OO[C@@](C)(CCC13)O[C@H]4O[C@]2(C)C(=O)Sc1ccccc1 (some centres not stated),Cured/treated,Mus musculus [3],2
C[C@@H]1CC[C@@H]2[C@]34OO[C@@](C)(CCC13)O[C@H]4O[C@]2(C)CC(=O)ONc1ccc(Cl)cc1 (some centres not stated),Cured/treated,Mus musculus [4],1
same,Cured/treated,Mus musculus [2],0
C[C@@H]1CC[C@@H]2[C@]34OO[C@@](C)(CCC13)O[C@H]4O[C@]2(C)COC(=O)C(=O)O (some centres not stated),Cured/treated,Mus musculus [5],0
C[C@@H]1CC[C@@H]2[C@]34OO[C@@](C)(CCC13)O[C@H]4O[C@]2(C)C(=O)N1CCN(C)CC1 (some centres not stated),Cured/treated,Mus musculus [5],0
C[C@@H]1CC[C@@H]2[C@]34OO[C@@](C)(CCC13)O[C@H]4O[C@]2(C)CO/C(S)=N/c1ccccc1 (some centres not stated),Cured/treated,Mus musculus [6],6
C=CC/N=C(\S)OC[C@@]1(C)O[C@@H]2O[C@]3(C)CCC4[C@H](C)CC[C@@H]1[C@]42OO3 (some centres not stated),Cured/treated,Mus musculus [5],0
C[C@@H]1CC[C@@H]2[C@]34OO[C@@](C)(CCC13)O[C@H]4O[C@]2(C)CO/C(S)=N/c1ccc(Cl)cc1 (some centres not stated),Cured/treated,Mus musculus [7],16
same,Cured/treated,Mus musculus [8],22
same,Cured/treated,Mus musculus [9],26
same,Cured/treated,Mus musculus [10],11
same,Cured/treated,Mus musculus [11],10
same,Cured/treated,Mus musculus [12],19
same,Cured/treated,Mus musculus [13],6
same,Cured/treated,Mus musculus [14],28
same,Cured/treated,Mus musculus [15],34
C[C@@H]1CC[C@@H]2[C@]34OO[C@@](C)(CCC13)O[C@H]4O[C@]2(C)CO/C(S)=N\c1ccc(F)cc1 (some centres not stated),Cured/treated,Mus musculus [16],0
same,Cured/treated,Mus musculus [17],0
same,Cured/treated,Mus musculus [18],6
CCOC(=O)c1cc(Cl)ccc1/N=C(/S)OC[C@@]1(C)O[C@@H]2O[C@]3(C)CCC4[C@H](C)CC[C@@H]1[C@]42OO3 (some centres not stated),Cured/treated,Mus musculus [5],0
"C[C@@H]1CCC2[C@]34OOC(C)(CCC13)O[C@H]4O[C@]2(C)CO (single isomer, unassigned)",Cured/treated,Mus musculus [5],0
"C[C@@H]1CCC2[C@]34OOC(C)(CCC13)O[C@H]4O[C@]2(C)C(=O)O (single isomer, unassigned)",Cured/treated,Mus musculus [5],0
"C#CCOC[C@@]1(C)O[C@@H]2OC3(C)CCC4[C@H](C)CC[C@@H]1[C@]42OO3 (single isomer, unassigned)",Cured/treated,Mus musculus [1],0
same,Cured/treated,Mus musculus [19],6
"C[C@@H]1CC[C@@H]2[C@]34OOC(C)(CCC13)O[C@H]4O[C@]2(C)COC/C=C/c1ccccc1 (single isomer, unassigned)",Cured/treated,Mus musculus [1],0
"C[C@@H]1CC[C@@H]2[C@]34OOC(C)(CCC13)O[C@H]4O[C@]2(C)C(=O)OCCBr (single isomer, unassigned)",Cured/treated,Mus musculus [1],0
"C=CCOC(=O)[C@@]1(C)O[C@@H]2OC3(C)CCC4[C@H](C)CC[C@@H]1[C@]42OO3 (single isomer, unassigned)",Cured/treated,Mus musculus [5],0
"C[C@@H]1CC[C@@H]2[C@]34OOC(C)(CCC13)O[C@H]4O[C@]2(C)/C=C/c1ccc(C(F)(F)F)cc1 (single isomer, unassigned)",Cured/treated,Mus musculus [20],5
same,Cured/treated,Mus musculus [21],0
"CCOC(=O)C(=C[C@@]1(C)O[C@@H]2OC3(C)CCC4[C@H](C)CC[C@@H]1[C@]42OO3)C(=O)OCC (single isomer, unassigned)",Cured/treated,Mus musculus [22],0
"CCOC(=O)/C=C\[C@@]1(C)O[C@@H]2OC3(C)CCC4[C@H](C)CC[C@@H]1[C@]42OO3 (single isomer, unassigned)",Cured/treated,Mus musculus [23],0
"C[C@@H]1CC[C@@H]2[C@]34OOC(C)(CCC13)O[C@H]4O[C@]2(C)C(=O)OCCCl (single isomer, unassigned)",Cured/treated,Mus musculus [24],0
same,Cured/treated,Mus musculus [1],0
"C[C@@H]1CC[C@@H]2[C@]34OOC(C)(CCC13)O[C@H]4O[C@]2(C)COS(=O)(=O)c1ccccc1 (single isomer, unassigned)",Cured/treated,Mus musculus [5],0
"Cc1ccc(S(=O)(=O)OC[C@@]2(C)O[C@@H]3OC4(C)CCC5[C@H](C)CC[C@@H]2[C@]53OO4)cc1 (single isomer, unassigned)",Cured/treated,Mus musculus [25],5
"C[C@@H]1CC[C@@H]2[C@]34OOC(C)(CCC13)O[C@H]4O[C@]2(C)COC=O (single isomer, unassigned)",Cured/treated,Mus musculus [22],0
"C[C@@H]1CC[C@@H]2[C@]34OOC(C)(CCC13)O[C@H]4O[C@]2(C)CC(=O)Oc1ccc([N+](=O)[O-])cc1 (single isomer, unassigned)",Cured/treated,Mus musculus [4],1
"C[C@@H]1CC[C@@H]2[C@]34OOC(C)(CCC13)O[C@H]4O[C@]2(C)COC(=O)CCCCl (single isomer, unassigned)",Cured/treated,Mus musculus [1],0
"C[C@@H]1CC[C@@H]2[C@]34OOC(C)(CCC13)O[C@H]4O[C@]2(C)COS(C)(=O)=O (single isomer, unassigned)",Cured/treated,Mus musculus [1],0
"C[C@@H]1CC[C@@H]2[C@]34OOC(C)(CCC13)O[C@H]4O[C@]2(C)COC(=O)CCl (single isomer, unassigned)",Cured/treated,Mus musculus [1],0
"CCOC(=O)[C@@]1(C)O[C@@H]2OC3(C)CCC4[C@H](C)CC[C@@H]1[C@]42OO3 (single isomer, unassigned)",Cured/treated,Mus musculus [26],0
"C[C@@H]1CC[C@@H]2[C@]34OOC(C)(CCC13)O[C@H]4O[C@]2(C)C(=O)OCCCCCCCCCl (single isomer, unassigned)",Cured/treated,Mus musculus [26],0
"C[C@@H]1CC[C@@H]2[C@]34OOC(C)(CCC13)O[C@H]4O[C@]2(C)C(=O)OCCCCl (single isomer, unassigned)",Cured/treated,Mus musculus [1],0
"C[C@@H]1CC[C@@H]2[C@]34OOC(C)(CCC13)O[C@H]4O[C@]2(C)C(=O)N1CCOCC1 (single isomer, unassigned)",Cured/treated,Mus musculus [5],0
"C[C@@H]1CC[C@@H]2[C@]34OOC(C)(CCC13)O[C@H]4O[C@]2(C)COC(=S)N1CCN(c2cccc(C(F)(F)F)c2)CC1 (single isomer, unassigned)",Cured/treated,Mus musculus [1],0
